Test results as given in PubChem BioAssay (NCI).
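48-hour exposure; five concentrations; linearly interpolated endpoints. Here, GI50 denotes the concentration required for 50% inhibition of growth. The concentration for full growth arrest is given as TGI.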

Key:
Assay in all cases: NCI anticancer screen, dose series, 48 h
HL-60(TB) leukemia = test system: HL-60(TB) leukemia
SF-539 CNS = test system: SF-539 CNS
A549 NSCLC = test system: A549 NSCLC
CCRF-CEM leukemia = test system: CCRF-CEM leukemia
UACC-257 melanoma = test system: UACC-257 melanoma
HOP-92 NSCLC = test system: HOP-92 NSCLC
K-562 leukemia = test system: K-562 leukemia
NCI/ADR-RES ovarian = test system: NCI/ADR-RES ovarian
DU-145 prostate = test system: DU-145 prostate
MCF7 breast = test system: MCF7 breast

Compound	TGI (HL-60(TB) leukemia)	TGI (SF-539 CNS)	TGI (A549 NSCLC)	TGI (CCRF-CEM leukemia)	TGI (UACC-257 melanoma)	TGI (HOP-92 NSCLC)	TGI (K-562 leukemia)	GI50 (HL-60(TB) leukemia)	GI50 (NCI/ADR-RES ovarian)	TGI (NCI/ADR-RES ovarian)	GI50 (SF-539 CNS)	GI50 (A549 NSCLC)	GI50 (DU-145 prostate)	TGI (DU-145 prostate)	GI50 (CCRF-CEM leukemia)	GI50 (UACC-257 melanoma)	GI50 (HOP-92 NSCLC)	GI50 (K-562 leukemia)	GI50 (MCF7 breast)	TGI (MCF7 breast)
Cc1c(C(=O)Nc2ccc(Cl)cc2)nc(N)nc1-c1cccc(Cl)c1	> 100 µM	> 100 µM	> 100 µM	> 100 µM	> 100 µM	95.6 µM	> 100 µM													
CC1=C(C(=O)NCc2ccccc2)C(c2ccccc2O)C(C(=O)NCc2ccccc2)=C(C)N1	62.2 µM	38.5 µM	44.6 µM	82.9 µM	> 31.6 µM	48.7 µM	88.9 µM													
CCCCCC/C(CC(=O)CCC(=O)NCCc1ccccc1)=N\NC(=O)c1ccc2ccccc2c1O	33.7 µM		> 100 µM	47.4 µM	> 100 µM	> 100 µM														
CC1CC2(C)CC(=O)C1C1C(=O)N(CCN3CCOCC3)C(=O)C12 (centres undefined)	> 100 µM	> 100 µM	> 100 µM	> 100 µM	> 100 µM	> 100 µM	> 100 µM	> 100 µM	> 100 µM	> 100 µM	> 100 µM	> 100 µM	> 100 µM	> 100 µM	> 100 µM	> 100 µM	> 100 µM	> 100 µM		
N#CCCn1c(CCC(=O)Nc2ccc(Cl)cc2Cl)n[nH]c1=S	> 100 µM	> 100 µM	> 100 µM	> 100 µM	> 100 µM	> 100 µM	> 100 µM													
COc1ccc(S(=O)(=O)N/N=C/CN2C(=O)c3ccccc3C2=O)cc1	> 100 µM	> 100 µM	> 100 µM	> 100 µM	> 100 µM		> 100 µM													
CC(=O)Nc1ccccc1S(=O)c1ccccc1 (centres undefined)	> 100 µM	> 100 µM	> 100 µM	> 100 µM	> 100 µM	> 100 µM	> 100 µM													
CN/N=C(/CC(=O)c1sc(NNC(C)=O)nc1C)C(=O)Nc1ccc(OC)cc1OC	> 100 µM	> 100 µM	> 100 µM	> 100 µM	> 100 µM	> 100 µM	> 100 µM													
C=C1CC(CC(=O)C(C)CC2CC(=C)C(=O)O2)OC1=O (centres undefined)	33.6 µM	37.7 µM	> 100 µM	26.8 µM	30.7 µM	32.1 µM	89.6 µM													
CC(=O)N1CCN(C=S)CC1	> 100 µM	> 100 µM	> 100 µM	> 100 µM	> 100 µM	> 100 µM	> 100 µM													
ClCCCN1CCCCC1CCl (centres undefined)	> 100 µM	> 100 µM	> 100 µM	> 100 µM		> 100 µM	> 100 µM													
C[C@H](CCCOS(C)(=O)=O)[C@H]1CC[C@H]2[C@@H]3CC[C@@H]4C[C@H](OS(C)(=O)=O)CC[C@]4(C)[C@H]3CC[C@]12C				> 2500 µM	> 2500 µM				10.5 µM		586 µM	793 µM	1160 µM		> 2500 µM	816 µM			323 µM	692 µM
O=C(OCc1ccccc1)c1ccccc1-c1c2ccc(=O)cc-2oc2cc(OCc3ccccc3)ccc12	22.8 µM	28.9 µM	82.2 µM	36.8 µM	67 µM	17.9 µM	> 100 µM													
COc1ccc2c(c1)NC(=O)CN2c1nc(C)nc2ccccc12	0.00151 µM	0.00144 µM	> 100 µM	> 100 µM		> 100 µM	> 100 µM	0.000361 µM			0.000298 µM	0.000588 µM		> 100 µM	0.000551 µM		49.5 µM	0.000359 µM	0.000363 µM	> 100 µM
CN(C)c1ccc(/C=c2\sc3nnc(Cc4ccccc4)n3c2=O)cc1	> 10 µM	> 100 µM	> 100 µM	> 100 µM	> 100 µM	> 100 µM	> 100 µM				> 100 µM	> 10 µM			> 100 µM	> 100 µM		> 100 µM		
COc1ccc([Se]c2ccc(OC)cc2)cc1	> 100 µM	> 100 µM	> 100 µM	> 100 µM	> 100 µM	98.7 µM	> 100 µM													
CCC12C=CCN3CCC4(C(=C(C(=O)OC)C1)Nc1ccccc14)[C@H]32 (some centres undefined)	88.7 µM	47.5 µM	> 100 µM	79.5 µM	> 100 µM	87.7 µM	52.5 µM													
NNC(=O)N/N=C1/C(=O)N(c2ccc(Cl)c(Cl)c2)C(=O)C(=O)C1c1nc2ccccc2o1 (centres undefined)	> 100 µM	> 100 µM	> 100 µM	> 100 µM	> 100 µM	> 100 µM	> 100 µM													
C#Cc1ccccc1N1C(=O)C=CC1=O	> 100 µM		> 100 µM	> 100 µM	> 100 µM		> 100 µM													
